Experimental data: PubChem BioAssay (NCI)
Several values for one entry are separate records, joined by “and”; a condition that tells them apart may be missing. Equal values may be shown once.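 Briefly, cells in 96-well plates were exposed to five compound concentrations for 48 h, and endpoints were estimated by linear interpolation. At the GI50, growth is halved. The concentration for full growth arrest is given as TGI.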

Tests used:
Assay in all cases: NCI tumour cell line growth inhibition, 48 h
HOP-62 NSCLC = system: HOP-62 NSCLC
A549 NSCLC = system: A549 NSCLC
A498 renal = system: A498 renal
SR leukemia = system: SR leukemia
HS 578T breast = system: HS 578T breast
SK-OV-3 ovarian = system: SK-OV-3 ovarian
SF-295 CNS = system: SF-295 CNS
MCF7 breast = system: MCF7 breast
SNB-19 CNS = system: SNB-19 CNS
SNB-75 CNS = system: SNB-75 CNS
NCI-H460 lung = system: NCI-H460 lung
NCI-H226 lung = system: NCI-H226 lung
CCRF-CEM leukemia = system: CCRF-CEM leukemia
MALME-3M melanoma = system: MALME-3M melanoma
NCI/ADR-RES ovarian = system: NCI/ADR-RES ovarian
HL-60(TB) leukemia = system: HL-60(TB) leukemia
U251 CNS = system: U251 CNS
EKVX NSCLC = system: EKVX NSCLC
HT29 colon = system: HT29 colon
SF-539 CNS = system: SF-539 CNS
SK-MEL-2 melanoma = system: SK-MEL-2 melanoma
OVCAR-3 ovarian = system: OVCAR-3 ovarian
PC-3 prostate = system: PC-3 prostate
RPMI-8226 leukemia = system: RPMI-8226 leukemia
MDA-MB-231 breast = system: MDA-MB-231 breast
T-47D breast = system: T-47D breast
BT-549 breast = system: BT-549 breast
ACHN renal = system: ACHN renal
SK-MEL-5 melanoma = system: SK-MEL-5 melanoma
SN12C renal = system: SN12C renal
UACC-257 melanoma = system: UACC-257 melanoma
OVCAR-8 ovarian = system: OVCAR-8 ovarian
K-562 leukemia = system: K-562 leukemia
LOX IMVI melanoma = system: LOX IMVI melanoma
M14 melanoma = system: M14 melanoma
KM12 colon = system: KM12 colon
UO-31 renal = system: UO-31 renal
COLO 205 colon = system: COLO 205 colon
786-0 renal = system: 786-0 renal
OVCAR-4 ovarian = system: OVCAR-4 ovarian
NCI-H522 lung = system: NCI-H522 lung
HOP-92 NSCLC = system: HOP-92 NSCLC
OVCAR-5 ovarian = system: OVCAR-5 ovarian
TK-10 renal = system: TK-10 renal
SW-620 colon = system: SW-620 colon
MOLT-4 leukemia = system: MOLT-4 leukemia
SF-268 CNS = system: SF-268 CNS
UACC-62 melanoma = system: UACC-62 melanoma
SK-MEL-28 melanoma = system: SK-MEL-28 melanoma
MDA-MB-435 = system: MDA-MB-435
NCI-H23 lung = system: NCI-H23 lung
IGROV1 ovarian = system: IGROV1 ovarian
HCT-15 colon = system: HCT-15 colon
HCC-2998 colon = system: HCC-2998 colon
HCT-116 colon = system: HCT-116 colon
DU-145 prostate = system: DU-145 prostate

`O=C(/C=C(/C=C/c1csc2ccccc12)OB(F)F)/C=C/c1csc2ccccc12` was tested, and the GI50 (HOP-62 NSCLC) was > 50000 nM, the TGI (HOP-62 NSCLC) was > 50000 nM and the GI50 (A549 NSCLC) was > 50000 nM. The TGI (A549 NSCLC) was > 50000 nM, the GI50 (A498 renal) was > 50000 nM and the TGI (A498 renal) was > 50000 nM. The GI50 (SR leukemia) was 230 nM, the TGI (SR leukemia) was > 50000 nM and the GI50 (HS 578T breast) was 2060 nM. For the same compound, the TGI (HS 578T breast) was > 50000 nM, the GI50 (SK-OV-3 ovarian) was > 50000 nM and the TGI (SK-OV-3 ovarian) was > 50000 nM. The GI50 (SF-295 CNS) was > 26200 nM, the TGI (SF-295 CNS) was > 50000 nM and the GI50 (MCF7 breast) was 1060 nM. For the same compound, the TGI (MCF7 breast) was > 50000 nM, the GI50 (SNB-19 CNS) was 3620 nM and the TGI (SNB-19 CNS) was > 50000 nM. For the same compound, the GI50 (SNB-75 CNS) was 2790 nM, the TGI (SNB-75 CNS) was > 50000 nM and the GI50 (NCI-H460 lung) was > 50000 nM. The TGI (NCI-H460 lung) was > 50000 nM, the GI50 (NCI-H226 lung) was > 50000 nM and the TGI (NCI-H226 lung) was > 50000 nM. For the same compound, the GI50 (CCRF-CEM leukemia) was 244 nM and the TGI (CCRF-CEM leukemia) was > 50000 nM.

For `COC(=O)C12CC(NC(=O)c3csc([C@@H](C[C@H](C(C)C)N(C)C(=O)[C@@H](NC(=O)[C@H]4CCCCN4C)C(C)C)OC(C)=O)n3)(C1)C2`, the GI50 (MALME-3M melanoma) was 7160 nM, the TGI (MALME-3M melanoma) was > 33300 nM and the GI50 (NCI/ADR-RES ovarian) was 147 nM. The TGI (NCI/ADR-RES ovarian) was > 33300 nM, the GI50 (HOP-62 NSCLC) was 3.53 nM and the GI50 (HL-60(TB) leukemia) was 0.345 nM. The TGI (HL-60(TB) leukemia) was 3.02 nM, the GI50 (A549 NSCLC) was 16.3 nM and 4.13 nM and the TGI (A549 NSCLC) was > 33300 nM. The GI50 (A498 renal) was 15.3 nM and 4.73 nM, the TGI (A498 renal) was 829 nM and 194 nM and the GI50 (U251 CNS) was 4.29 nM and 3.33 nM. For the same compound, the TGI (U251 CNS) was > 33300 nM, the GI50 (EKVX NSCLC) was 18 nM and 4.26 nM and the TGI (EKVX NSCLC) was > 33300 nM. The GI50 (HT29 colon) was 1.77 nM and 3.33 nM, the TGI (HT29 colon) was 39.6 nM and the GI50 (SF-539 CNS) was 2.26 nM. The TGI (SF-539 CNS) was 26.7 nM, the GI50 (SK-MEL-2 melanoma) was 1.97 nM and the GI50 (OVCAR-3 ovarian) was 0.335 nM and 3.33 nM. The TGI (OVCAR-3 ovarian) was 2.4 nM and 4.41 nM, the GI50 (PC-3 prostate) was 6.39 nM and 3.33 nM and the TGI (PC-3 prostate) was > 33300 nM. For the same compound, the GI50 (RPMI-8226 leukemia) was 1.31 nM and 3.33 nM, the TGI (RPMI-8226 leukemia) was > 33300 nM and the GI50 (MDA-MB-231 breast) was 4.34 nM and 3.33 nM. The GI50 (T-47D breast) was 4.07 nM, the GI50 (BT-549 breast) was 4.39 nM and 3.41 nM and the TGI (BT-549 breast) was 93.9 nM and 330 nM. For the same compound, the GI50 (ACHN renal) was 17.4 nM, the TGI (ACHN renal) was > 33300 nM and the GI50 (SK-MEL-5 melanoma) was 0.829 nM and 3.33 nM. For the same compound, the TGI (SK-MEL-5 melanoma) was 32.4 nM and 173 nM, the GI50 (SN12C renal) was 3 nM and 3.33 nM and the TGI (SN12C renal) was > 33300 nM. For the same compound, the GI50 (SR leukemia) was 0.745 nM, the GI50 (UACC-257 melanoma) was > 33300 nM and the TGI (UACC-257 melanoma) was > 33300 nM. For the same compound, the GI50 (OVCAR-8 ovarian) was 4.29 nM and 3.33 nM, the TGI (OVCAR-8 ovarian) was > 33300 nM and the GI50 (HS 578T breast) was 3.33 nM. For the same compound, the TGI (HS 578T breast) was > 33300 nM, the GI50 (SK-OV-3 ovarian) was 6.39 nM and 3.33 nM and the TGI (SK-OV-3 ovarian) was > 33300 nM. For the same compound, the GI50 (K-562 leukemia) was 0.513 nM and 3.33 nM, the TGI (K-562 leukemia) was > 33300 nM and the GI50 (LOX IMVI melanoma) was 2.17 nM and 3.33 nM. The TGI (LOX IMVI melanoma) was > 33300 nM, the GI50 (M14 melanoma) was 1.76 nM and 3.33 nM and the TGI (M14 melanoma) was > 33300 nM. The GI50 (KM12 colon) was 5.07 nM and 3.33 nM, the TGI (KM12 colon) was > 33300 nM and the GI50 (SF-295 CNS) was 4.54 nM. The GI50 (UO-31 renal) was 46.2 nM, the GI50 (COLO 205 colon) was 1.41 nM and the TGI (COLO 205 colon) was 16.2 nM. For the same compound, the GI50 (MCF7 breast) was 0.598 nM and 3.33 nM, the TGI (MCF7 breast) was > 33300 nM and the GI50 (786-0 renal) was 5 nM and 3.33 nM. For the same compound, the TGI (786-0 renal) was > 33300 nM, the TGI (OVCAR-4 ovarian) was > 33300 nM and the GI50 (NCI-H522 lung) was 0.185 nM and < 3.33 nM. For the same compound, the TGI (NCI-H522 lung) was 0.929 nM and < 3.33 nM, the GI50 (HOP-92 NSCLC) was > 33300 nM and the TGI (HOP-92 NSCLC) was > 33300 nM. For the same compound, the TGI (OVCAR-5 ovarian) was > 33300 nM, the GI50 (TK-10 renal) was 379 nM and the TGI (TK-10 renal) was > 33300 nM. The GI50 (SNB-19 CNS) was 2.2 nM and 3.33 nM, the TGI (SNB-19 CNS) was > 33300 nM and the GI50 (SW-620 colon) was 0.535 nM and 3.33 nM. For the same compound, the TGI (SW-620 colon) was > 33300 nM, the GI50 (MOLT-4 leukemia) was 6.88 nM and 3.33 nM and the TGI (MOLT-4 leukemia) was > 33300 nM. For the same compound, the GI50 (SNB-75 CNS) was 3.33 nM, the TGI (SNB-75 CNS) was > 33300 nM and the GI50 (SF-268 CNS) was 4.88 nM and 3.88 nM. The TGI (SF-268 CNS) was > 33300 nM, the GI50 (UACC-62 melanoma) was 3.13 nM and 3.33 nM and the TGI (UACC-62 melanoma) was > 33300 nM. For the same compound, the GI50 (SK-MEL-28 melanoma) was > 33300 nM, the TGI (SK-MEL-28 melanoma) was > 33300 nM and the GI50 (MDA-MB-435) was 0.165 nM. The TGI (MDA-MB-435) was 1.69 nM, the GI50 (NCI-H460 lung) was 2.98 nM and 3.33 nM and the TGI (NCI-H460 lung) was > 33300 nM. The GI50 (NCI-H23 lung) was 10.4 nM and 3.33 nM, the TGI (NCI-H23 lung) was > 33300 nM and the GI50 (IGROV1 ovarian) was 2.37 nM and 3.33 nM. The TGI (IGROV1 ovarian) was > 33300 nM, the GI50 (HCT-15 colon) was 14.5 nM and 8.01 nM and the TGI (HCT-15 colon) was > 33300 nM. The GI50 (HCC-2998 colon) was 7.48 nM and 3.33 nM, the TGI (HCC-2998 colon) was > 33300 nM and the GI50 (HCT-116 colon) was 3.02 nM and 3.33 nM. The TGI (HCT-116 colon) was > 33300 nM, the GI50 (NCI-H226 lung) was 18.1 nM and 22.7 nM and the GI50 (CCRF-CEM leukemia) was 0.518 nM and 3.33 nM. For the same compound, the TGI (CCRF-CEM leukemia) was > 33300 nM, the GI50 (DU-145 prostate) was 1.65 nM and 3.33 nM and the TGI (DU-145 prostate) was > 33300 nM.
